Data from patent US20070049593A1 (priority 2004, published 2007).
Structures can show the parent of a compound that is named as a salt.

Molecular target: T1, HCV polymerase (Hepatitis C virus genotype 1b, UniProt P26663)
T1 construct: a region encoding NS5B (J Virol 1991 March, 65(3), 1105-13, 544 amino acids after deletion of 47 amino acids on the C-terminal); 6xHis (C); made in house; host or cells: Escherichia coli
Experiment: biochemical
Set-up: species or system HCV BK strain
How it was run: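 His-tagged NS5B (BK strain, 47-aa C-terminal deletion, E. coli-expressed) at 0.5 μg/ml copied 5 μg/ml run-off RNA bearing the HCV 3′ UTR with 2 μM UTP plus [3H]UTP, 50 μM ATP/GTP, in pH 7.5 Tris with 5 mM MgCl2, 25 °C, 90 min. TCA-precipitated RNA was counted and IC50 calculated.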

T1 sequence (P26663 2420-2963): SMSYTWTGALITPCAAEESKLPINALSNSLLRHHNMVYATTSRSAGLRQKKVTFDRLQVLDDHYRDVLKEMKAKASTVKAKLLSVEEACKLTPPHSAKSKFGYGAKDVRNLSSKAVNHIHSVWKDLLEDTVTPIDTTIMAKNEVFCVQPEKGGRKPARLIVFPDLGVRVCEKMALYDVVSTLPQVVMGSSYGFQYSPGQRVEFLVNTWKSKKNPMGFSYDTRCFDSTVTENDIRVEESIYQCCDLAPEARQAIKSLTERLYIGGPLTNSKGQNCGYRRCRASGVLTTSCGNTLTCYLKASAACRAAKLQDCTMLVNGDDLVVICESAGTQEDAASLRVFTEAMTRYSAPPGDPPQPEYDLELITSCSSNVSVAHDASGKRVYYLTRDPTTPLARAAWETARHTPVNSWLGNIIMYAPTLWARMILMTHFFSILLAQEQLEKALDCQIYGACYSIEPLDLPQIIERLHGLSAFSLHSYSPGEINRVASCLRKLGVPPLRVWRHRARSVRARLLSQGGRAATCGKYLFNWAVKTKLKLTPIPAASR

`CCC1CCCN(CCN2CCn3c(c(C4CCCCC4)c4ccc(C(=O)O)cc43)-c3ccccc32)C1` (stereo not drawn) [Example 1-190, 13-cyclohexyl-5-[2-(3-ethylpiperidin-1-yl)ethyl]-6,7-dihydro-5H-benzo[5,6][1,4]diazepino[7,1-a]indole-10-carboxylic acid dihydrochloride] and `COCC1CCCN(CCN2CCn3c(c(C4CCCCC4)c4ccc(C(=O)O)cc43)-c3ccccc32)C1` (stereo not drawn) [Example 1-200, 13-cyclohexyl-5-[2-(3-methoxymethylpiperidin-1-yl)ethyl]-6,7-dihydro-5H-benzo[5,6][1,4]diazepino[7,1-a]indole-10-carboxylic acid dihydrochloride] cannot be ordered by IC50: < 100 nM for the first, < 100 nM for the second.

First: Cc1ccc2c(c1)-c1c(C3CCCCC3)c3ccc(C(=O)O)cc3n1CCN2CCN1CCCCC1 [Example 1-191, 13-cyclohexyl-2-methyl-5-[2-(piperidin-1-yl)ethyl]-6,7-dihydro-5H-benzo[5,6][1,4]diazepino[7,1-a]indole-10-carboxylic acid dihydrochloride]
Second: Cc1cccc2c1N(CCN1CCCCC1)CCn1c-2c(C2CCCCC2)c2ccc(C(=O)O)cc21 [Example 1-206, 13-cyclohexyl-4-methyl-5-[2-(piperidin-1-yl)ethyl]-6,7-dihydro-5H-benzo[5,6][1,4]diazepino[7,1-a]indole-10-carboxylic acid dihydrochloride]
The IC50 of the first is higher: 100 to 1000 nM for the first, < 100 nM for the second. The second is the more potent here.

`CCCC1CCN(CCN2CCn3c(c(C4CCCCC4)c4ccc(C(=O)O)cc43)-c3ccccc32)CC1` [Example 1-192, 13-cyclohexyl-5-[2-(4-propylpiperidin-1-yl)ethyl]-6,7-dihydro-5H-benzo[5,6][1,4]diazepino[7,1-a]indole-10-carboxylic acid dihydrochloride] and `COCC1CCN(CCN2CCn3c(c(C4CCCCC4)c4ccc(C(=O)O)cc43)-c3ccccc32)CC1` [Example 1-197, 13-cyclohexyl-5-[2-(4-methoxymethylpiperidin-1-yl)ethyl]-6,7-dihydro-5H-benzo[5,6][1,4]diazepino[7,1-a]indole-10-carboxylic acid dihydrochloride] cannot be ordered by IC50: < 100 nM for the first, < 100 nM for the second.

`C[C@@H]1CCC[C@H](C)N1CCN1CCn2c(c(C3CCCCC3)c3ccc(C(=O)O)cc32)-c2ccccc21` [Example 1-193, 13-cyclohexyl-5-[2-((2S,6R)-2,6-dimethylpiperidin-1-yl)ethyl]-6,7-dihydro-5H-benzo[5,6][1,4]diazepino[7,1-a]indole-10-carboxylic acid dihydrochloride] and `CC1CCCN1CCN1CCn2c(c(C3CCCCC3)c3ccc(C(=O)O)cc32)-c2ccccc21` (stereo not drawn) [Example 1-208, 13-cyclohexyl-5-[2-(2-methylpyrrolidin-1-yl)ethyl]-6,7-dihydro-5H-benzo[5,6][1,4]diazepino[7,1-a]indole-10-carboxylic acid dihydrochloride] cannot be ordered by IC50: < 100 nM for the first, < 100 nM for the second.

`O=C(O)c1ccc2c(C3CCCCC3)c3n(c2c1)CCN(CCCN1CCCCCC1)c1ccccc1-3` [Example 1-194, 5-[3-(azepan-1-yl)propyl]-13-cyclohexyl-6,7-dihydro-5H-benzo[5,6][1,4]diazepino[7,1-a]indole-10-carboxylic acid dihydrochloride] and `CC1(C)CCN(CCN2CCn3c(c(C4CCCCC4)c4ccc(C(=O)O)cc43)-c3ccccc32)CC1` [Example 1-199, 13-cyclohexyl-5-[2-(4,4-dimethylpiperidin-1-yl)ethyl]-6,7-dihydro-5H-benzo[5,6][1,4]diazepino[7,1-a]indole-10-carboxylic acid dihydrochloride] cannot be ordered by IC50: < 100 nM for the first, < 100 nM for the second.

`O=C(CN1CCn2c(c(C3CCCCC3)c3ccc(C(=O)O)cc32)-c2ccccc21)NC12CC3CC(CC(C3)C1)C2` [Example 1-195, 5-(adamantan-1-ylcarbamoylmethyl)-13-cyclohexyl-6,7-dihydro-5H-benzo[5,6][1,4]diazepino[7,1-a]indole-10-carboxylic acid monohydrochloride] and `O=C(O)c1ccc2c(C3CCCCC3)c3n(c2c1)CCN(CCNC12CC4CC(CC(C4)C1)C2)c1ccccc1-3` [Example 1-196, 5-[2-(adamantan-1-ylamino)ethyl]-13-cyclohexyl-6,7-dihydro-5H-benzo[5,6][1,4]diazepino[7,1-a]indole-10-carboxylic acid dihydrochloride] cannot be ordered by IC50: < 100 nM for the first, < 100 nM for the second.

`CCCN(C)CCN1CCn2c(c(C3CCCCC3)c3ccc(C(=O)O)cc32)-c2ccccc21` [Example 1-198, 13-cyclohexyl-5-[2-(N-methyl-N-propylamino)ethyl]-6,7-dihydro-5H-benzo[5,6][1,4]diazepino[7,1-a]indole-10-carboxylic acid dihydrochloride] and `CC(C)CN(C)CCN1CCn2c(c(C3CCCCC3)c3ccc(C(=O)O)cc32)-c2ccccc21` [Example 1-209, 13-cyclohexyl-5-[2-(N-isobutyl-N-methylamino)ethyl]-6,7-dihydro-5H-benzo[5,6][1,4]diazepino[7,1-a]indole-10-carboxylic acid dihydrochloride] cannot be ordered by IC50: < 100 nM for the first, < 100 nM for the second.

`CN1CCCC(CCN2CCn3c(c(C4CCCCC4)c4ccc(C(=O)O)cc43)-c3ccccc32)C1` (stereo not drawn) [Example 1-201, 13-cyclohexyl-5-[2-(1-methylpiperidin-3-yl)ethyl]-6,7-dihydro-5H-benzo[5,6][1,4]diazepino[7,1-a]indole-10-carboxylic acid dihydrochloride] and `CC(C)N1CCCC(CCN2CCn3c(c(C4CCCCC4)c4ccc(C(=O)O)cc43)-c3ccccc32)C1` (stereo not drawn) [Example 1-202, 13-cyclohexyl-5-[2-(1-isopropylpiperidin-3-yl)ethyl]-6,7-dihydro-5H-benzo[5,6][1,4]diazepino[7,1-a]indole-10-carboxylic acid dihydrochloride] cannot be ordered by IC50: < 100 nM for the first, < 100 nM for the second.

`O=C(O)c1ccc2c(C3CCCCC3)c3n(c2c1)CC(=O)N(CC(=O)N1CCCCC1)c1ccccc1-3` [Example 1-203, 13-cyclohexyl-6-oxo-5-[2-oxo-2-(piperidin-1-yl)ethyl]-6,7-dihydro-5H-benzo[5,6][1,4]diazepino[7,1-a]indole-10-carboxylic acid] and `O=C(O)c1ccc2c(C3CCCCC3)c3n(c2c1)CC(=O)N(CC(=O)N1CCOCC1)c1ccccc1-3` [Example 1-210, 13-cyclohexyl-5-[2-(morpholin-4-yl)-2-oxoethyl]-6-oxo-6,7-dihydro-5H-benzo[5,6][1,4]diazepino[7,1-a]indole-10-carboxylic acid] cannot be ordered by IC50: < 100 nM for the first, < 100 nM for the second.

`CCN1CCN(C(=O)CN2C(=O)Cn3c(c(C4CCCCC4)c4ccc(C(=O)O)cc43)-c3ccccc32)CC1` [Example 1-204, 13-cyclohexyl-5-[2-(4-ethylpiperazin-1-yl)-2-oxoethyl]-6-oxo-6,7-dihydro-5H-benzo[5,6][1,4]diazepino[7,1-a]indole-10-carboxylic acid monohydrochloride] and `O=C(O)c1ccc2c(C3CCCCC3)c3n(c2c1)CCN(CCN1CC=CCC1)c1ccccc1-3` [Example 1-205, 13-cyclohexyl-5-[2-(3,6-dihydro-2H-pyridin-1-yl)ethyl]-6,7-dihydro-5H-benzo[5,6][1,4]diazepino[7,1-a]indole-10-carboxylic acid] cannot be ordered by IC50: < 100 nM for the first, < 100 nM for the second.

With `COC[C@@H]1CCCN1CCN1CCn2c(c(C3CCCCC3)c3ccc(C(=O)O)cc32)-c2ccccc21` [Example 1-207, 13-cyclohexyl-5-[2-((S)-2-methoxymethylpyrrolidin-1-yl)ethyl]-6,7-dihydro-5H-benzo[5,6][1,4]diazepino[7,1-a]indole-10-carboxylic acid dihydrochloride] the IC50 was < 100 nM.
